# Article PMC4835877, “HM71224, a novel Bruton’s tyrosine kinase inhibitor, suppresses B cell and monocyte activation and ameliorates arthritis in a mouse model: a potential drug for rheumatoid arthritis” (Arthritis Research & Therapy, 2016)
# Experiments:
# [1] = system: DBA/1 J mice with collagen-induced arthritis; experiment: Collagen-induced arthritis (CIA) model; assay type: in vivo, mouse
# Description: All animal experimental protocols were approved by the animal care and use committee of the Hanmi Research Center, and performed in accordance with approved guidelines. Male DBA/1 J mice (9 weeks old; n = 7 per group) were immunized with an emulsion of Complete Freund’s Adjuvant and bovine type II collagen (CII) (total volume, 0.07 mL) via intradermal injection at the base of the tail (day 0). Three weeks later, the mice received a booster immunization comprising bovine CII emulsified in Incomplete Freund’s Adjuvant. […] The arthritis score and body weight were measured three times per week for 2 weeks after administration of the drugs (Additional file 1: Figure S1). The arthritis score was determined by grading each paw from 0 to 4 based on erythema, swelling, and flexion of the joint and was expressed as the sum of the scores of all four paws. Serum levels of IL-6 were measured by Luminex analysis in a bead-based immunoassay (EMD Millipore Corporation). Serum levels of anti-CII and total IgG were measured by ELISA (Chondrex, Seattle, WA, USA; Bethyl Laboratories, Montgomery, TX, USA).
# Micro-CT of the hind limbs was performed using a Siemens Inveon Micro-CT/PET scanner (Siemens Medical Solutions, Knoxville, TN, USA).
# The hind legs of each mouse were fixed with 10 % formalin, decalcified in 5 % formic acid, and embedded in paraffin. Sections were then cut and stained with hematoxylin and eosin (H&E). The bone erosion index was scored from 0 to 4 according to the following criteria: 0 = no erosion, 1 = mild (focal subchondral erosion), 2 = moderate (multiple subchondral erosions), 3 = high (as above and focal erosion of talus), and 4 = maximum (multiple erosions of tarsal and metatarsal bones).
# Figure S1. Experiment design of collagen induced arthritis. Untreated DBA/1J mice (n=7) served as healthy controls (Ctrl). DBA/1J mice (n= 56) were immunized Day 0 and day 21. On day 10 after boosting (i.e. day 31), the induction of CIA was evaluated. […] Immunized mice (n=42) were divided into 6 groups (n=7 in each group). […] CIA, collagen induced arthritis.
# BTK = BTK (Homo sapiens, UniProt Q06187); experiment: Btk occupancy in human PBMCs (biotinylated probe); assay type: cell-based; conditions: primary human cells (PBMCs), 100 nM
# Sequence of BTK (Q06187 whole entry): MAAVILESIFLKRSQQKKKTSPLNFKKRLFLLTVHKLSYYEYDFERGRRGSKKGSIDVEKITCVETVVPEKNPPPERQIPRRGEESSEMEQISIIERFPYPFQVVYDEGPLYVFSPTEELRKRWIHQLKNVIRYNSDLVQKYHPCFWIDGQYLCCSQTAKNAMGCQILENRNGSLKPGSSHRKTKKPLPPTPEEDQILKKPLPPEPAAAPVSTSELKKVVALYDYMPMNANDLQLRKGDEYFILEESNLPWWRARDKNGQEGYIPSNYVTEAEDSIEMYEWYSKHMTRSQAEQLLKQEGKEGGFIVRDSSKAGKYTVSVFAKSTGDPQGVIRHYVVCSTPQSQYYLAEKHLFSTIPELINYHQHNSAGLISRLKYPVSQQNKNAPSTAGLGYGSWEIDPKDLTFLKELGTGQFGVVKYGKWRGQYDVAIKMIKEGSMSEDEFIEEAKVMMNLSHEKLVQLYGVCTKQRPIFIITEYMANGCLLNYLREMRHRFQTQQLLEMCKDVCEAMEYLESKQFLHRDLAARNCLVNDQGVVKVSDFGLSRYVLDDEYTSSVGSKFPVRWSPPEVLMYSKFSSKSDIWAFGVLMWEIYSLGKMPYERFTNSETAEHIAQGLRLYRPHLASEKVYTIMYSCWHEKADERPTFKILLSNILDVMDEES
# Description: After treatment with HM71224, cells were lysed and then incubated for 1 h with 1 μM of biotinylated probe (HM71224 derivative). The lysed cells were loaded into streptavidin-coated wells and then incubated with an anti-Btk antibody (1:1000; clone number D3H5, Cell signaling Technology, Danvers, MA, USA) for 1 h, followed by a secondary HRP-conjugated antibody (1:10000; EMD Millipore Corporation, Billerica, MA, USA) at room temperature for 1 h. After washing, 100 μL of colorimetric solution (R&D systems, Minneapolis, MN, USA) was added, and the reaction was stopped 30 minutes later by addition of 100 μL of sulfuric acid (0.2 moles/L). The plate was read with the absorbance reader at 450 nm.
# To measure Btk occupancy by immunoprecipitation (IP), biotinylated HM71224 probes were preincubated with cell lysates for 1 h at 4 °C. Streptavidin-coated beads were then added, and the mixture was incubated overnight at 4 °C. Immunoblotting was then performed, and band density was measured using MultiGauge V3.0 software (FUJI FILM, Tokyo, Japan). Untreated biotinylated probes were set at 100 %.
structure (smiles),measurement,setting,value
C=CC(=O)Nc1cccc(Oc2nc(Nc3ccc(N4CCN(C)CC4)cc3)nc3ccoc23)c1 [HM71224],Levels of circulating anti-collagen antibodies vs untreated group,[1]; CIA mice,significantly lower
same,Serum IL-6 levels vs untreated group,[1]; CIA mice,significantly lower
same,Total IgG level,[1]; CIA mice,tended to be lower
same,Erosive bone changes and bone loss,"[1]; CIA mice, H&E section",markedly reduced erosive bone changes and prevented bone loss
same,Weight loss,[1]; dose of 3 mg/kg or higher,prevented weight loss
same,"AS, arthritis score","[1]; oral 1mg/kg once a day, D0",1.1±0.7
same,"Wt, weight","[1]; oral 1mg/kg once a day, D0",22.7±0.5 gram
same,"AS, arthritis score","[1]; oral 1mg/kg once a day, D1",1.1±0.7
same,"Wt, weight","[1]; oral 1mg/kg once a day, D1",22.5±0.5 gram
same,"AS, arthritis score","[1]; oral 1mg/kg once a day, D4",1.9±0.9
same,"Wt, weight","[1]; oral 1mg/kg once a day, D4",22.2±0.6 gram
same,"AS, arthritis score","[1]; oral 1mg/kg once a day, D6",2.1±1.1
same,"Wt, weight","[1]; oral 1mg/kg once a day, D6",21.9±0.5 gram
same,"AS, arthritis score","[1]; oral 1mg/kg once a day, D8",2.9±1.1
same,"Wt, weight","[1]; oral 1mg/kg once a day, D8",22.1±0.5 gram
same,"AS, arthritis score","[1]; oral 1mg/kg once a day, D12",5.0±1.0
same,"Wt, weight","[1]; oral 1mg/kg once a day, D12",21.6±0.5 gram
same,"AS, arthritis score","[1]; oral 1mg/kg once a day, D13",6.6±0.7
same,"Wt, weight","[1]; oral 1mg/kg once a day, D13",21.4±0.4 gram
same,"AS, arthritis score","[1]; oral 1mg/kg once a day, D15",6.6±0.9
same,"Wt, weight","[1]; oral 1mg/kg once a day, D15",21.2±0.3 gram
same,"AS, arthritis score","[1]; oral 3mg/kg once a day, D0",1.1±0.3
same,"Wt, weight","[1]; oral 3mg/kg once a day, D0",22.7±0.4 gram
same,"AS, arthritis score","[1]; oral 3mg/kg once a day, D1",1.3±0.7
same,"Wt, weight","[1]; oral 3mg/kg once a day, D1",22.3±0.5 gram
same,"AS, arthritis score","[1]; oral 3mg/kg once a day, D4",1.9±0.6
same,"Wt, weight","[1]; oral 3mg/kg once a day, D4",22.2±0.4 gram
same,"AS, arthritis score","[1]; oral 3mg/kg once a day, D6",1.9±0.6
same,"Wt, weight","[1]; oral 3mg/kg once a day, D6",22.4±0.4 gram
same,"AS, arthritis score","[1]; oral 3mg/kg once a day, D8",2.0±0.7
same,"Wt, weight","[1]; oral 3mg/kg once a day, D8",22.5±0.4 gram
same,"AS, arthritis score","[1]; oral 3mg/kg once a day, D12",3.1±0.9
same,"Wt, weight","[1]; oral 3mg/kg once a day, D12",22.6±0.4 gram
same,"AS, arthritis score","[1]; oral 3mg/kg once a day, D13",3.4±1.2
same,"Wt, weight","[1]; oral 3mg/kg once a day, D13",22.6±0.4 gram
same,"AS, arthritis score","[1]; oral 3mg/kg once a day, D15",3.4±1.4
same,"Wt, weight","[1]; oral 3mg/kg once a day, D15",22.5±0.4 gram
same,"AS, arthritis score","[1]; oral 10mg/kg once a day, D0",1.1±0.6
same,"Wt, weight","[1]; oral 10mg/kg once a day, D0",23.0±0.2 gram
same,"AS, arthritis score","[1]; oral 10mg/kg once a day, D1",0.9±0.3
same,"Wt, weight","[1]; oral 10mg/kg once a day, D1",22.8±0.3 gram
same,"AS, arthritis score","[1]; oral 10mg/kg once a day, D4",0.4±0.2
same,"Wt, weight","[1]; oral 10mg/kg once a day, D4",23.2±0.3 gram
same,"AS, arthritis score","[1]; oral 10mg/kg once a day, D6",0.6±0.4
same,"Wt, weight","[1]; oral 10mg/kg once a day, D6",23.0±0.3 gram
same,"AS, arthritis score","[1]; oral 10mg/kg once a day, D8",0.6±0.3
same,"Wt, weight","[1]; oral 10mg/kg once a day, D8",23.2±0.3 gram
same,"AS, arthritis score","[1]; oral 10mg/kg once a day, D12",1.0±0.4
same,"Wt, weight","[1]; oral 10mg/kg once a day, D12",23.5±0.3 gram
same,"AS, arthritis score","[1]; oral 10mg/kg once a day, D13",0.7±0.4
same,"Wt, weight","[1]; oral 10mg/kg once a day, D13",23.8±0.3 gram
same,"AS, arthritis score","[1]; oral 10mg/kg once a day, D15",0.7±0.4
same,"Wt, weight","[1]; oral 10mg/kg once a day, D15",23.9±0.3 gram
same,"AS, arthritis score","[1]; oral 30mg/kg once a day, D0",1.1±0.5
same,"Wt, weight","[1]; oral 30mg/kg once a day, D0",22.6±0.5 gram
same,"AS, arthritis score","[1]; oral 30mg/kg once a day, D1",0.9±0.3
same,"Wt, weight","[1]; oral 30mg/kg once a day, D1",22.0±0.5 gram
same,"AS, arthritis score","[1]; oral 30mg/kg once a day, D4",0.3±0.2
same,"Wt, weight","[1]; oral 30mg/kg once a day, D4",22.1±0.4 gram
same,"AS, arthritis score","[1]; oral 30mg/kg once a day, D6",0.3±0.2
same,"Wt, weight","[1]; oral 30mg/kg once a day, D6",22.1±0.4 gram
same,"AS, arthritis score","[1]; oral 30mg/kg once a day, D8",0.4±0.2
same,"Wt, weight","[1]; oral 30mg/kg once a day, D8",22.4±0.4 gram
same,"AS, arthritis score","[1]; oral 30mg/kg once a day, D12",0.4±0.2
same,"Wt, weight","[1]; oral 30mg/kg once a day, D12",22.5±0.4 gram
same,"AS, arthritis score","[1]; oral 30mg/kg once a day, D13",0.4±0.3
same,"Wt, weight","[1]; oral 30mg/kg once a day, D13",22.9±0.5 gram
same,"AS, arthritis score","[1]; oral 30mg/kg once a day, D15",0.3±0.2
same,"Wt, weight","[1]; oral 30mg/kg once a day, D15",22.8±0.4 gram
same,Arthritis score vs untreated CIA mice,"[1]; oral once a day for 2 weeks, P < 0.05 at 10 mg/kg, P < 0.01 at 30 mg/kg",lower arthritis scores than untreated CIA mice
same,Btk sites occupied,BTK,> 70%
